# Reference: patent US20260265694A1, “USE OF A VITISIN COMPOUND FOR THE PRODUCTION OF HEMATOPOIETIC CELLS” (ETABLISSEMENT FRANCAIS DU SANG, priority 2022, published 2026)
# Experiments:
# Assay type in all cases: cell-based, human
# [1] = system: peripheral blood CD34+ cells; experiment: ERYTHRO 1 PROTOCOL: simplified two-phase erythrocyte differentiation; conditions: versus CTRL, FIG. 3
# Procedure: b. ERYTHRO 1 PROTOCOL: Simplified Ex Vivo Erythrocyte Differentiation Protocol (in Two Phases) This protocol was applied to CD34^+ cells from peripheral and placental blood, pre-stimulated SP cells, CMP cells and MEP cells. For this culture, the cell populations of interest are isolated as indicated previously and cultured in IMDM culture medium supplemented as follows: • 15% BIT 9500 (Stem Cell Technologies). […] The various cell populations were seeded in 24-well plates at 200 000 cells/mL for CD34^+, CMPs and MEPs. All of the cells recovered after the “Amplification/pre-stimulation” step for SP cells (i.e. 5000-50 000 cells) were cultured in 24-well plates. This culture includes two phases: • Phase 1: D0 to D6, EPO-free culture • Phase 2: from D6, addition of 2 IU/ML EPO and extension of culturing up to D21 minimum and D28 maximum.
# (§1) In order to test the effect of vitisin B in this context, the culturing is performed in the absence and presence of vitisin B: • CTRL condition: Absence of vitisin B throughout the entire protocol. • Test condition: Presence of vitisin B at 5, 10, 15, 20 or 30 μM for the entire duration of the protocol (phase 1+phase 2). During the culture protocol, the differentiation product is analyzed by quantifying proliferation (counting) and analyzing erythrocyte differentiation markers by means of flow cytometry, using the markers CD71 and CD235a. c. ERYTHRO 2 PROTOCOL: Three-Phase Erythrocyte Differentiation Protocol
# During and at the end of the various erythrocyte differentiation protocols, cell proliferation and cell differentiation are analyzed. Cell proliferation is evaluated by counting of cells on Malassez slides, with Trypan blue exclusion of dead cells. The different populations and culture conditions are also analyzed by flow cytometry, so as to observe the appearance of erythrocyte differentiation markers and thus cell differentiation kinetics. […] After resuspension of the cell pellets in PBS, the cells are analyzed by flow cytometry (FACSCantoll, Becton Dickinson, San Jose, CA). […]
# [2] = system: SP cells (CD34+DCVlow) isolated from peripheral blood CD34+ cells; experiment: ERYTHRO 1 PROTOCOL on sorted SP cells; conditions: SPs, 10 μM, as early as D7, FIG. 4B
# Procedure: SP cells are identifiable by virtue of their property of expelling certain dyes such as Hoescht or Dye Cycle Violet (DCV)). This expulsion takes place by means of […] ATP Binding Cassette (ABCG2) pumps (Brunet de la Grange et al., 2013). To identify SP cells within previously isolated CD34^+ cells, they are incubated with a DCV dye (5 μM) in DMEM^+ medium (Dulbecco's Modified Eagle's Medium (DMEM), 2% FCS, 1% HEPES) for 2 h at 37° C. and in the dark. After incubation, all manipulations up to final cell sorting are performed on ice and in PBS^+ medium (PBS, 2% FCS), a glucose- and calcium-depleted medium which stops the expulsion pumps. […] CD34^+ cells having a low fluorescence intensity for the DCV marker (CD34^+ SP cells) are analyzed (UV 350 nm or violet 405 nm), sorted and recovered using an ARIA cell sorter (Becton Dickinson). […]
# as §1, with “ERYTHRO 2 PROTOCOL: Three-Phase Erythrocyte Differentiation Protocol” left out
# [3] = system: BFU-E and CFU-E erythrocyte progenitors from placental blood CD34+ cells; experiment: CFC clonogenic assay of BFU-E and CFU-E during phase 1 of ERYTHRO 2; conditions: 10 μM
# Procedure: • CTRL condition: cells are cultured for 7 days in the absence of vitisin B. • TEST condition: cells are cultured for 7 days in the presence of vitisin B at 10 μM.
# To this end, the CFC (Colony Forming Cells) test is used. Committed progenitors are capable of generating colonies after culture in a semisolid medium composed of methylcellulose and supplemented with cytokines. Thus, committed progenitors (here BFU-Es and CFU-Es) produced during erythrocyte cultures can be counted.
# This analysis of BFU-E and CFU-E production was performed only during phase 1 of PROTOCOL 2. Cells grown and harvested on days 4, 8 and 11 of phase 1 were seeded in a ready-to-use cytokine-supplemented methylcellulose H4034 kit (Stem Cell Technology, Meylan, France) at concentrations of 150 cells/[…] H4034 for day 4 and 300 cells/250
compound,measurement,setting,value
"Oc1ccc(C2Oc3ccc(/C=C/c4cc(O)cc5c4[C@H](c4cc(O)cc(O)c4)[C@@H](c4ccc(O)cc4)O5)cc3C2c2cc(O)cc3c2C(c2cc(O)cc(O)c2)C(c2ccc(O)cc2)O3)cc1 (stereo in doubt) [vitisin B, 5-[(2R,2'S,3R,3'S)-5-[(1E)-2-[(2S,3S)-3-(3,5-Dihydroxyphenyl)-2,3-dihydro-6-hydroxy-2-(4-hydroxyphenyl)-4-benzofuranyl]ethenyl]-2,2′,3,3′-tetrahydro-6′-hydroxy-2,2′-bis(4-hydroxyphenyl)[3,4′-bibenzofuran]-3′-yl]-1,3-benzenediol]",CD71 expression,[1]; flow cytometry,more rapid decline
same,acquisition of CD235a (GPA),[1]; flow cytometry,earlier acquisition
same,differentiation of CD34+ cells into erythrocyte precursors,[1]; vitisin B 5-30 μM for the entire protocol,faster and greater differentiation
same,reduction relative to the control in CD71 membrane expression,[2],up to 40%
same,appearance of primitive erythrocyte progenitors (BFU-Es),"[3]; clonogenic assay at D4, D8, D11, FIG. 7A",accelerated the appearance
same,appearance of more differentiated progenitors (CFU-Es),"[3]; clonogenic assay at D4, D8, D11, FIG. 7B",accelerated the appearance
